# Reference: US20210268122A1, “INHIBITION OF S[…] PROTEIN INHIBITORS OF CYSTEINE PROTEASES” (DYVE BIOSCIENCES, INC., priority 2017, published 2021)
# Read-outs that look alike come from different tables or passages of the source.
# Experiments:
# MDA-MB-231/eGFP cells [1] = conditions: Example 14, Ncr nude mice
# LL/2 cells = conditions: SCID-beige mice, 1×10^6 LL/2 cells intravenously; treatment for 120 days
# Method: In vivo tests were performed as follows: SCID-beige mice aged 6 weeks were injected intravenously with 1×10^6 LL/2 cells.
# The treatment groups were:
# Group A (Negative Control): Untreated
# Volumes of primary tumors were measured twice weekly.
# MDA-MB-231/eGFP cells [2] = tested on: MDA-MB-231/eGFP cells
# cysteine cathepsin = conditions: after intra-peritoneal injections; cited from earlier work
# RIP1-Tag2 mice = conditions: 100 μL topically once daily
# From the text: Trial design was built to assess these primary outcomes: the effects on angiogenesis and tumor growth. Treatment groups randomized as follows:
# Each applied topically once daily. Formulations are detailed below:
# [3] = tested on: MMTV-PyMT-transgenic mouse model; conditions: cited from earlier work
# [4] = gross necropsy at end of 120 day survival experiment
# [5] = Example 13, Ncr nude mice, gross necropsy at end of 120 day survival experiment
Compound,% of mice surviving to 120 days (MDA-MB-231/eGFP cells [1]; MDA-MB-231/eGFP orthotopic),"metastatic rate, intestinal (MDA-MB-231/eGFP cells [1]; [4])","metastatic rate, lung (MDA-MB-231/eGFP cells [1]; [4])","metastatic rate, lymph node (MDA-MB-231/eGFP cells [1]; [4])","metastatic rate, mesentery (MDA-MB-231/eGFP cells [1]; [4])",mice surviving to 120 days (LL/2 cells),"% of mice surviving to 120 days (MDA-MB-231/eGFP cells [2]; Example 13, Ncr nude mice, MDA-MB-231/eGFP orthotopic)","metastatic rate, intestinal (MDA-MB-231/eGFP cells [2]; [5])","metastatic rate, lung (MDA-MB-231/eGFP cells [2]; [5])","metastatic rate, lymph node (MDA-MB-231/eGFP cells [2]; [5])","metastatic rate, mesentery (MDA-MB-231/eGFP cells [2]; [5])","primary tumor growth rates (MDA-MB-231/eGFP cells [2]; Example 13, compared among all active groups B, C, D, E)",cysteine cathepsin activities in mammary and in lungs (cysteine cathepsin),"cysteine cathepsin activities in pancreas, kidney, and liver (cysteine cathepsin)",reduction in the number of angiogenic islets relative to the Control Group (RIP1-Tag2 mice; at 10.5 weeks of age),reduction of cumulative tumor volume relative to the Control Group (RIP1-Tag2 mice; at 14.5 weeks of age),activity against early and advanced mammary cancer stages [3]
"O=C([O-])O.[Na+] [Group B (Oral Buffer, Positive Control), sodium bicarbonate]",60%,0%,8%,27%,0%,20%,60%,0%,8%,27%,0%,the same,–,–,–,–,–
JPM-OEt,–,–,–,–,–,–,–,–,–,–,–,–,not significantly affected,effective inhibition,49%,67%,active
